# Columns and labels:
# human RIPK1 = human RIPK1 (Homo sapiens (Human), UniProt Q13546); assay: KINOMEscan binding assay, human RIPK1; settings: Table 21
# Method in brief: (§1)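 Binding constants were derived by fitting qPCR-quantified bead-retained kinase against compound concentration to the Hill equation, slope set at −1. Compound series were 3-fold over 11 points with 1% DMSO; most top concentrations were 30,000 nM. Kinases were T7-phage-tagged or HEK-293-produced with DNA tags.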
# human RIPK3 = human RIPK3 (Homo sapiens (Human), UniProt Q9Y572); assay: KINOMEscan binding assay, human RIPK3; settings: Table 21
# Method in brief: as §1
# endogenous MLKL in MDF = endogenous MLKL in MDF (Mus musculus (Mouse), UniProt Q9D2Y4); assay: Degradation assay: endogenous MLKL in MDF (western blot); settings: MDF cells, 24 h incubation with compound, MLKL adjusted for loading with GAPDH, normalized to DMSO only control, read-out: Degradation of endogenous MLKL in MDF (DC50 cell-based assay)
# Method in brief: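 MDF (seeded the day before) or U937 cells were treated 24 h at 37 °C, 10% CO2 with compound at 10, 2, 0.4, 0.08 and 0.016 μM final. Endogenous MLKL was quantified by western blot (anti-MLKL 3H1), normalized to GAPDH. Percent degradation was taken relative to DMSO control.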
# human RIPK3, sequence (Q9Y572 whole entry): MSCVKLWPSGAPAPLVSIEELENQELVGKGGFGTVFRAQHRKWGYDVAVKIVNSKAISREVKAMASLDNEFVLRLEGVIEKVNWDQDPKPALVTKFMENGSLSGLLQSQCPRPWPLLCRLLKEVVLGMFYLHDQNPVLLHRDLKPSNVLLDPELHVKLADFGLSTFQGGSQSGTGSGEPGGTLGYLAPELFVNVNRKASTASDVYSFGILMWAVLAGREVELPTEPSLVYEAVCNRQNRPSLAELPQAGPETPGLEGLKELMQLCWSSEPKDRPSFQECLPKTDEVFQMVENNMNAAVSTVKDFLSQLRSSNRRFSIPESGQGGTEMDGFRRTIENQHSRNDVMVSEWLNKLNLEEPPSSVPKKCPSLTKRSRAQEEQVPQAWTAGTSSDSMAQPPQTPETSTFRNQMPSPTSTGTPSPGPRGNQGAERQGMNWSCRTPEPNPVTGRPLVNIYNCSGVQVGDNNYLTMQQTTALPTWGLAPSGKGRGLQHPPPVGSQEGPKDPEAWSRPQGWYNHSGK
# human RIPK1, sequence (Q13546 whole entry): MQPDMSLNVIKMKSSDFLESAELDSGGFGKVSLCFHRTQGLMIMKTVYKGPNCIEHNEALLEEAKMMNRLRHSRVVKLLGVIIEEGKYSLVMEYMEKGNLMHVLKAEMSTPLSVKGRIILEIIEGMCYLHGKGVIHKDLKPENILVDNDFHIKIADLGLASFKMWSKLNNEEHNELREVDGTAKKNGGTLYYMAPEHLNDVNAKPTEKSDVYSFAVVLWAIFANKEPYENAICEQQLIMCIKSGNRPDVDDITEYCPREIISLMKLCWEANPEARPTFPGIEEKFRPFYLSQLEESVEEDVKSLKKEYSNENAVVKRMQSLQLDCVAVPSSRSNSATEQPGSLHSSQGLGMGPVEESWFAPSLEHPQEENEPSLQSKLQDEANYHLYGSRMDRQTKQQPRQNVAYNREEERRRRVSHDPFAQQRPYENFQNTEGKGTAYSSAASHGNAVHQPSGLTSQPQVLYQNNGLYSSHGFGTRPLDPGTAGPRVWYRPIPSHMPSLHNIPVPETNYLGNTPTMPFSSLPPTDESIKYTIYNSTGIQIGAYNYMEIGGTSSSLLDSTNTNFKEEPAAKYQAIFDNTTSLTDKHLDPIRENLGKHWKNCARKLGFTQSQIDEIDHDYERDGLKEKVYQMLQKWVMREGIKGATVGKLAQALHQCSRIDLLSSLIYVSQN
# endogenous MLKL in MDF, sequence (Q9D2Y4 whole entry): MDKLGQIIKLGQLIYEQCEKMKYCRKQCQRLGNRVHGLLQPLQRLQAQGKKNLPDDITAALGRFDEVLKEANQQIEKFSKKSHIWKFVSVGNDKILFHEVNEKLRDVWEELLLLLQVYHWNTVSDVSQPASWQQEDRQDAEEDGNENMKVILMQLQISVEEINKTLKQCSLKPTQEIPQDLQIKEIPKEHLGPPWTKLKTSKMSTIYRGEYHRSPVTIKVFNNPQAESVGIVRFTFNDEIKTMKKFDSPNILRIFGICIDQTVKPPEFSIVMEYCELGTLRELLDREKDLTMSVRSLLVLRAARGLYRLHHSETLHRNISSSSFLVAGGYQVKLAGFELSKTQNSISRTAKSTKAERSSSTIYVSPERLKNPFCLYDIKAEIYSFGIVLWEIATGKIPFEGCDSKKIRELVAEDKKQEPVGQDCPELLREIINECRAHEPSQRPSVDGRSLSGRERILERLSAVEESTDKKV
Compound,Kd (human RIPK1),Kd (human RIPK3),DC50 (endogenous MLKL in MDF)
"N-(4-(4-amino-1-methyl-7-(1-(1,2,2-trimethylpiperidin-4-yl)-1H-pyrazol-4-yl)-1H-pyrazolo[4,3-c]pyridin-3-yl)-2-((S)-1-(4-fluorophenyl)ethoxy)phenyl)-1,1-difluoromethanesulfonamide [Compound 113]",> 10 µM,> 10 µM,
"C[C@H](Oc1cc(-c2nn(C)c3c(-c4cnn(CCCCCCCOc5cccc6c5C(=O)N(C5CCC(=O)NC5=O)C6=O)c4)cnc(N)c23)ccc1NS(=O)(=O)C(F)F)c1ccc(F)cc1 (some centres unmarked) [Compound 1031, N-(4-{4-amino-7-[1-(7-{[2-(2,6-dioxopiperidin-3-yl)-1,3-dioxo-2,3-dihydro-1H-isoindol-4-yl]oxy}heptyl)-1H-pyrazol-4-yl]-1-methyl-1H-pyrazolo[4,3-c]pyridin-3-yl}-2-[(1 S)-1-(4-fluorophenyl)ethoxy]phenyl)-1,1-difluoromethanesulfonamide]",,,< 1000 nM
Nc1ncc(-c2cnn(C3CCOCC3)c2)c2[nH]nc(-c3ccc(NS(=O)(=O)C(F)F)c(OCc4cccc(Cl)c4)c3)c12 [Compound 131],> 10 µM,> 10 µM,
